Test results reported in patent publication US12049520B2, “Bicyclic peptide ligands specific for CD137” (priority 2017, dated 2024).
“Also recorded” adds a separate entry of the source.

Experiments:
[1] = molecular target: T1, CD137 (Homo sapiens, UniProt Q07011); experiment: CD137 direct binding assay (fluorescence polarisation); details: D-Alanine scan, reference BCY7151
Description: Affinity of the peptides of the invention for human CD137 (Ki) was determined using a fluorescence polarisation assay, in accordance with the methods disclosed in WO 2016/067035. Peptides of the invention were labelled with a fluorescent tag (fluorescein, FI) and diluted to 2.5 nM in 50 mM HEPES with 100 mM NaCl and 0.05% tween pH 7.5. CD137 protein was titrated starting at 3 μM in the same assay buffer as the peptide to assay 1 nM peptide in a total volume of 25 μL in black walled and bottomed low bind low volume 384 well plates. The assay was typically set up by adding 5 μL assay buffer, 10 μL CD137 protein then 10 μL fluorescent peptide. The concentrations of CD137 protein were 1 in 2 serial dilutions to give 12 different concentrations starting at 3 μM. Measurements were conducted on a BMG PHERAstar FS equipped with an FP 485 520 520 optic module at 25° C. with 200 flashes per well and a positioning delay of 0.1 second. Alternatively, the measurements were performed using Envision (PerkinElmer) equipped with FITC FP Dual Enh mirror, set to 30 flashes. Each well was measured every 5 minutes for 60 minutes. The gain used for analysis was determined for each tracer at the end of the 60 minutes where there was no protein in the well. The mP were fit to a standard 1:1 binding model with a quadratic equation to generate a Kd value.

[2] = molecular target: T1, CD137; experiment: Fluorescence polarization competition binding assay, tracer BCY640 against CD137L, Urelumab, Utomilumab; parameters: purchased AcroBiosystems; details: BCY640 tracer at 1 nM, CD137 500 nM, FIGS. 2 and 3
Description: The binding site of the hCD137-specific Bicycle peptide was determined by competition experiment between a fluorescent labelled CD137 binding peptide and natural ligand CD137L, agonistic antibodies Urelumab and Utomilumab. Urelumab antibody binds to a distinct binding site while CD137L and Utomilumab both bind to the site termed the ligand-binding site.
The competitor agonists CD137L (R&D systems), Urelumab and Utomilumab were diluted in assay buffer 20 mM HEPES, 150 mM NaCl, 0.05% P20, pH7.5 to a top concentration of 500-1000 nM. The human CD137 protein (AcroBiosystems) was diluted to 500 nM final concentration in the assay. […] The assay was typically set up by adding 5 μL agonist competitor, 10 μL CD137 protein then 10 μL fluorescent peptide. The total volume of 25 μL was prepared in black walled and bottomed low binding low volume 384 well plates. Measurements were conducted on a BMG PHERAstar FS equipped with an FP 485 520 520 optic module at 25° C. with 200 flashes per well and a positioning delay of 0.1 second. Each well was measured every 5 minutes for 60 minutes. The gain was set in a well containing tracer without target protein. The mP-values at the end of the 60 minutes read were plotted against concentration of the agonists. Reduction in the mP-values indicates competition between the known agonist and the tracer peptide.

[3] = molecular target: T1, CD137; experiment: CD137 cell activity, Promega CD137 NF-κB luciferase reporter assay in Jurkat cells, antagonism of CD137L; assay type: cell-based; parameters: host or cells: Jurkat (CD137 Jurkat reporter cells); details: co-incubation with trimeric CD137L, FIG. 1
Description: The biological activity of the CD137-specific peptides was tested using the cellular CD137 luciferase reporter assay kit (Promega). The cells in this commercially available kit express luciferase that is activated down-stream of CD137. This assay can be used to assess agonism (exemplified by CD137 ligand, CD137L) and antagonism (exemplified by bicyclic peptide 74-01-04-N002).
The Promega CD137 cell-activity assay uses NF-κB luciferase luminescence as a read-out of CD137 activation in Jurkat cells. […] Dilute and then titrate down the bicyclic peptide in a sterile 96 well-plate. […] Prepare enough reagent for duplicate samples and then perform ⅓ dilution series dilution series. Include positive control CD137L and bicyclic peptide alone. […] Add 50 μl cells/well to white cell culture plate. Add 12.5 μl bicyclic peptide (at 6× final concentration) to the cells.
Co-incubate cells together with CD137L agonist and bicyclic peptide for 6 h at 37° C., 5% CO2. After 6 h thaw Bio-Glo™ and develop the assay at room-temperature. Add 75 μl Bio-Glo™ per well and incubate 5-10 min. Read luminescence signal on Pherastar plate-reader LUM plus models, gain 3600 using MARS software. Analyse data by calculating the percentage inhibition compared to CD137L alone. […]
The CD137 reporter activity was determined as NF-κB promotor driven luciferase activity.

T1 sequence (Q07011 24-255): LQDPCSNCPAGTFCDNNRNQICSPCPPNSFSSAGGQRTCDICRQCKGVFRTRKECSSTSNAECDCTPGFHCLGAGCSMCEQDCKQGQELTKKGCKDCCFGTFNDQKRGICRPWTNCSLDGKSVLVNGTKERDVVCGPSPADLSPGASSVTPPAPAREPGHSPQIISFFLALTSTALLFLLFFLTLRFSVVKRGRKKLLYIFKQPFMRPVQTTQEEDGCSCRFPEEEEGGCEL

[PEG3]-ACIEEaQYCFADPY(Nle)CA [BCY7297]
affinity relative to the reference peptide [1]: improved affinity

ACIEEGQYCFADPYMCA-Sar6-K [BCY640]
binding site on CD137 by competition [2]: binds to the physiologically relevant epitope that is shared with both the natural CD137 ligand (CD137L) and CD137 antibody (Utomilumab)

ACIEEGQYCFADPYMCA [BCY592]
effect on CD137L activity in CD137 reporter cells [3]: can act as an antagonist that inhibits CD137L activity; also recorded: inhibited CD137L activity
